The source of these data is PMC9826610 (Journal of medicinal chemistry, 2022).

Data set [1] has as its system methicillin-resistant S. aureus (FPR3757). The data set is described as follows: MIC against methicillin-resistant S. aureus. Type of data set: cell-based, Staphylococcus aureus. The settings on record: for MIC: complete inhibition of observable growth, Mueller–Hinton broth.
Another data set has as its system S. aureus (strain COL). The data set is described as follows: Fluorescence microscopy of membrane, cell wall and DNA in MRSA. The format is cell-based. The settings on record: 1× MIC, 30 min.
Data set [2] is described as follows: Kinetic aqueous solubility by LC-MS/MS. The settings on record: pH 7.4.
The subject of a further data set is sheep erythrocytes. The settings on record: washed sheep erythrocytes; at 32 μg/mL; compared to Triton X-100 (100% lysis).
Data set [3] has as its system S. aureus (strain USA300). The data set is described as follows: Transmission electron microscopy of treated MRSA. The format is cell-based. The settings on record: 1× MIC.
A further data set concerns MRSA. Kind of data set: MRSA MIC in the presence of serum. The conditions noted are these: Staphylococcus aureus. The format is cell-based.
The test system of the next data set is C. albicans. The data set is described as follows: Antimicrobial susceptibility panel: MIC against C. albicans. The format is cell-based. The conditions noted are these: Candida albicans, SC5314.
Data set [4] can be described thus: Single-dose in vivo pharmacokinetics. The conditions noted are these: mice.

Molecules are shown by their SMILES. ≈ marks a conversion by molar mass, not a printed value. Read-outs that look alike come from different tables or passages of the source.

For `Fc1ccc(Nc2cc(C(F)(F)F)nc3cc(C(F)(F)F)ccc23)cc1F` [Compound 21], in data set [1] (Staphylococcus aureus), the MIC is 0.125 to 0.25 µg/mL (≈ 0.319 to 0.637 µM).
In data set [1] (Staphylococcus aureus), `FC(F)(F)Oc1ccc2c(Nc3ccc(C(F)(F)F)cn3)cc(C(F)(F)F)nc2c1` [Compound 34] returned an MIC of 0.5 to 1 µg/mL (≈ 1.13 to 2.27 µM).
Still for that read-out and setting: for `FC(F)(F)Oc1cccc(Nc2cc(C(F)(F)F)nc3cc(OC(F)(F)F)ccc23)c1` [Compound 33] the value was 0.5 to 1 µg/mL (≈ 1.1 to 2.19 µM); for `FC(F)(F)c1ccc2c(Nc3cccc(Cl)c3)cc(C(F)(F)F)nc2c1` [Compound 16], 0.125 to 0.25 µg/mL (≈ 0.32 to 0.64 µM).
Take `O=c1cc(C(F)(F)F)[nH]c2cc(F)cc(Nc3ccc(C(F)(F)F)cn3)c12` [Compound 122]: in the data set on S. aureus (strain COL), the “FM 4–64 membrane staining by fluorescence microscopy” value is “membrane defects”.
Turning to `O=c1cc(C(F)(F)F)[nH]c2cc(C(F)(F)F)cc(Nc3ccc(C(F)(F)F)cn3)c12` [Compound 111, 5-[(5-Trifluoromethylpyridin-2-yl)amino]-2,7-bis-(trifluoromethyl)quinolin-4(1H)-one], the concentration in solution in data set [2] (solubility at 6 h) was 2.4 ± 0.4 ng/mL (≈ 0.00544 µM). Besides, the hemolysis result in the data set on sheep erythrocytes was “devoid of hemolytic activity”. The “cell morphology by TEM” value in data set [3] was “mesosome-like membrane inclusions”. Also, the MIC was 4 to 8 µg/mL with MRSA (read-out: MIC + 10% human serum), 4 to 8 µg/mL in the data set on MRSA (read-out: MIC + 10% mouse serum), 4 to 8 µg/mL in the data set with MRSA (read-out: MIC + 30% FBS) and 256 µg/mL (≈ 580 µM) against C. albicans. In addition, the “time total plasma concentrations stay above the MIC (<0.0625 μg/mL)” value in data set [4] (following i.v. dosing at 0.5 mg/kg) and in data set [4] (following oral dosing at 10 mg/kg) was ~9 h throughout.
`Fc1cccc(Nc2cc(C(F)(F)F)nc3cc(C(F)(F)F)ccc23)c1` [Compound 18]: the MIC in data set [1] (Staphylococcus aureus) fell in the range of 4 to 16 µg/mL (≈ 10.7 to 42.8 µM).
In turn, `CSc1ccc2c(O)cc(C(F)(F)F)nc2c1` [Compound 10] came in with an MIC in data set [1] (Staphylococcus aureus) of 320 to 640 µg/mL (≈ 1230 to 2470 µM).
Same read-out and setting: in the case of `Oc1cc(C(F)(F)F)nc2cc(OC(F)(F)F)ccc12` [Compound 3] it was 4 to 8 µg/mL (≈ 13.5 to 26.9 µM); in that of `CSc1cccc(Nc2cc(C(F)(F)F)nc3cc(C(F)(F)F)ccc23)c1` [Compound 24], 0.25 to 0.5 µg/mL (≈ 0.621 to 1.24 µM).
On to `Fc1cc2nc(C(F)(F)F)cc(Nc3ccc(C(F)(F)F)cn3)c2cc1F` [Compound 78], for which the hemolysis entry in the data set on sheep erythrocytes is on record as “hemolysis”.
As to `Oc1cc(C(F)(F)F)nc2c(C(F)(F)F)cccc12` [Compound 4], the MIC in data set [1] (Staphylococcus aureus) was in the range of 2 to 4 µg/mL (≈ 7.11 to 14.2 µM).
Still for that read-out and setting: for `FC(F)(F)c1ccc(Nc2cc(N3CCNCC3)c3ccc(C(F)(F)F)cc3n2)nc1` [Compound 106] the value was 4 to 8 µg/mL (≈ 9.06 to 18.1 µM).
As for `FC(F)(F)c1ccc2c(Nc3ccc(C(F)(F)F)nc3)cc(C(F)(F)F)nc2c1` [Compound 49], the MIC entry in data set [1] is recorded as “completely abolished activity”.
In data set [1] (Staphylococcus aureus), `O=c1cc(C(F)(F)F)[nH]c2cc(C(F)(F)F)cc(Nc3ccc(F)cn3)c12` [Compound 114] registered an MIC of 0.125 to 2 µg/mL (≈ 0.319 to 5.11 µM).
For the compound `FC(F)(F)c1ccc2c(Nc3ccc(Cl)cc3)cc(C(F)(F)F)nc2c1` [Compound 17], the MIC in data set [1] (Staphylococcus aureus) is 0.125 to 0.25 µg/mL (≈ 0.32 to 0.64 µM).
With `FC(F)(F)c1ccc(Nc2cc(N3CCOCC3)c3ccc(C(F)(F)F)cc3n2)nc1` [Compound 108], the MIC in data set [1] (Staphylococcus aureus) fell in the range of 4 to 8 µg/mL (≈ 9.04 to 18.1 µM).
`Fc1ccc2c(Nc3ccc(Cl)c(Cl)c3)cc(C(F)(F)F)nc2c1` [Compound 74]: the minimal inhibitory concentration (MIC) in data set [1] (Staphylococcus aureus) was in the range of 0.5 to 2 µg/mL (≈ 1.33 to 5.33 µM).
Same read-out and setting: in the case of `O=c1cc(C(F)(F)F)[nH]c2cc(C(F)(F)F)ccc12` [Compound 2, 2,7-Bis-(trifluoromethyl)quinolin-4-ol] it was 4 to 8 µg/mL (≈ 14.2 to 28.5 µM).
With `O=c1cc(C(F)(F)F)[nH]c2cc(C(F)(F)F)cc(N[C@H]3CC[C@H](C(F)(F)F)CC3)c12` [Compound 120], the “cell morphology by TEM” value in data set [3] is reported as “mesosome-like membrane inclusions”. Further, in the data set with S. aureus (strain COL), the “FM 4–64 membrane staining by fluorescence microscopy” value is “membrane defects”.
In the case of `Fc1ccc(Nc2nc(C(F)(F)F)nc3nc(C(F)(F)F)ccc23)cc1F` [Compound 94, N-(3,4-Difluorophenyl)-2,7-bis(trifluoromethyl)pyrido[2,3-d]-pyrimidin-4-amine], the MIC in data set [1] (Staphylococcus aureus) is ≥ 32 µg/mL.
In turn, `COc1ccc2c(O)cc(C(F)(F)F)nc2c1` [Compound 9] returned an MIC in data set [1] (Staphylococcus aureus) of 320 to 640 µg/mL (≈ 1320 to 2630 µM).
As to `FC(F)(F)c1ccc2c(Nc3nccs3)cc(C(F)(F)F)nc2c1` [Compound 55], the MIC in data set [1] (Staphylococcus aureus) fell in the range of 1 to 2 µg/mL (≈ 2.75 to 5.51 µM).
Take `FC(F)(F)c1ccc2c(Nc3cc(Cl)ccn3)cc(C(F)(F)F)nc2c1` [Compound 48]: the “loss of activity (MIC) relative to 31” value in data set [1] is 8 fold.
For `Fc1ccc2nc(C(F)(F)F)cc(Nc3ccc(C(F)(F)F)cn3)c2c1F` [Compound 77], the MIC in data set [1] (Staphylococcus aureus) lay within 16 to 32 µg/mL (≈ 40.7 to 81.4 µM).
The same measure, in the same setting: for `Fc1ccc2c(Nc3ccc(C(F)(F)F)cn3)cc(C(F)(F)F)nc2c1` [Compound 76] the value was 0.5 to 2 µg/mL (≈ 1.33 to 5.33 µM); for `CCc1ccc2c(O)cc(C(F)(F)F)nc2c1` [Compound 8], 320 to 640 µg/mL (≈ 1330 to 2650 µM).
As for `FC(F)(F)c1ccc(Nc2cc(C(F)(F)F)nc3cc(C(F)(F)F)ccc23)nc1` [Compound 31, 2,7-Bis(trifluoromethyl)-4-[5-(trifluoromethyl)pyridin-2-yl-amino]quinoline], in data set [3], the “cell morphology by TEM” value is given as “mesosome-like membrane inclusions”. In the data set on MRSA (read-out: MIC + 10% FBS), the MIC was 4 to 8 µg/mL.
`FC(F)(F)Oc1ccc2c(Nc3ccc(Cl)c(Cl)c3)cc(C(F)(F)F)nc2c1` [Compound 32] gave an MIC in data set [1] (Staphylococcus aureus) of 0.5 to 1 µg/mL (≈ 1.13 to 2.27 µM).
With `FC(F)(F)c1ccc(Nc2cc(N3CCNCC3)nc3cc(C(F)(F)F)ccc23)nc1` [Compound 105, 2-(Piperazin-1-yl)-7-(trifluoromethyl)-4-{[5-(trifluoro-methyl)-pyridin-2-yl]amino}quinoline], the MIC lay in the range of 0.5 to 1 µg/mL (≈ 1.13 to 2.27 µM) in data set [1] (Staphylococcus aureus) and 0.5 to 1 µg/mL in data set [1].
